# Active and inactive are the calls of the source. No cut-off for these calls is given here.
# Tests used:
# [1] = system: Candida albicans; assay: Antifungal activity against Candida albicans CA5 by broth dilution method; assay type: functional
# [2] = system: MRC5; assay: Cytotoxicity against human MRC5 cells after 48 hrs by MTT assay; assay type: cell-based; settings: MRC5, 48 h
# [3] = Selectivity index, ratio of IC50 for human MRC5 cell to MIC for Candida albicans CA5
# [4] = system: Candida albicans; assay: Antibiofilm activity against Candida albicans ATCC 10231 assessed as inhibition of hyphae formation at MIC after 24 hrs by concanavalin A-FITC-staining based fluorescence microscopic analysis; assay type: functional, organism-based
# [5] = Induction of membrane damage in PC/PS/E liposome assessed as calcein release at MIC after 30 mins by fluorescence-based liposome leakage assay; assay type: functional
# [6] = system: Pichia kudriavzevii; assay: Antibiofilm activity against Candida krusei ATCC 34135 assessed as inhibition of hyphae formation at MIC after 24 hrs by concanavalin A-FITC-staining based fluorescence microscopic analysis; assay type: functional, organism-based
# [7] = system: Candida parapsilosis; assay: Antibiofilm activity against Candida parapsilosis C27 assessed as inhibition of hyphae formation at MIC after 24 hrs by concanavalin A-FITC-staining based fluorescence microscopic analysis; assay type: functional, organism-based
# [8] = system: Candida albicans; assay: Antibiofilm activity against Candida albicans ATCC 10231 assessed as disruption of preformed biofilm after 24 hrs by concanavalin A-FITC-staining based fluorescence microscopic analysis; assay type: functional
# [9] = system: Candida parapsilosis; assay: Antibiofilm activity against Candida parapsilosis C27 assessed as disruption of preformed biofilm after 24 hrs by concanavalin A-FITC-staining based fluorescence microscopic analysis; assay type: functional
# [10] = Toxicity against zebrafish embryo assessed as dead embryos at 5 ug/ml measured at 96 hrs post fertilization by inverted microscopic analysis; assay type: organism-based, Danio rerio; settings: read-out: Activity
# [11] = species on record: Danio rerio; assay: Toxicity against zebrafish embryo assessed as teratogenic embryos at 50 ug/ml measured at 96 hrs post fertilization by inverted microscopic analysis; assay type: organism-based; settings: in vivo
# [12] = species on record: Danio rerio; assay: Toxicity against zebrafish embryo assessed as teratogenic embryos at 10 ug/ml measured at 96 hrs post fertilization by inverted microscopic analysis; assay type: organism-based; settings: in vivo
# [13] = species on record: Danio rerio; assay: Toxicity against zebrafish embryo assessed as effect on tail tip at 25 ug/ml measured at 96 hrs post fertilization by inverted microscopic analysis; assay type: organism-based; settings: in vivo
# [14] = species on record: Danio rerio; assay: Toxicity against zebrafish embryo assessed as growth retardation at 50 ug/ml measured at 96 hrs post fertilization by inverted microscopic analysis; assay type: organism-based; settings: in vivo
# [15] = species on record: Danio rerio; assay: Toxicity against zebrafish embryo assessed as growth retardation at 25 ug/ml measured at 96 hrs post fertilization by inverted microscopic analysis; assay type: organism-based; settings: in vivo
# [16] = species on record: Danio rerio; assay: Toxicity against zebrafish embryo assessed as growth retardation at 5 ug/ml measured at 96 hrs post fertilization by inverted microscopic analysis; assay type: organism-based; settings: in vivo
# [17] = Toxicity against zebrafish embryo measured at 96 hrs post fertilization by inverted microscopic analysis; assay type: organism-based, Danio rerio; settings: zebrafish embryos
# [18] = system: Candida albicans; assay: Induction of apoptosis in Candida albicans CA5 assessed as nuclear condensation at MIC measured after 2 hrs by concavaline-FITC/PI/DAPI-staining based fluorescence microscopic analysis relative to DMSO control; assay type: functional, organism-based
# [19] = system: Pichia kudriavzevii; assay: Antibiofilm activity against 48 hrs pre-formed Candida krusei ATCC 34135 assessed as inhibition of hyphae formation at MIC after 24 hrs by concanavalin A-FITC-staining based fluorescence microscopic analysis; assay type: functional, organism-based
# [20] = species on record: Danio rerio; assay: Toxicity against zebrafish embryo assessed as normal embryos at 50 ug/ml measured at 96 hrs post fertilization by inverted microscopic analysis; assay type: organism-based; settings: in vivo
# [21] = species on record: Danio rerio; assay: Toxicity against zebrafish embryo assessed as normal embryos at 10 ug/ml measured at 96 hrs post fertilization by inverted microscopic analysis; assay type: organism-based; settings: in vivo
# [22] = species on record: Danio rerio; assay: Toxicity against zebrafish embryo assessed as effect on notochord at 25 ug/ml measured at 96 hrs post fertilization by inverted microscopic analysis; assay type: organism-based; settings: in vivo
# [23] = species on record: Danio rerio; assay: Toxicity against zebrafish embryo assessed as effect on eyes at 25 ug/ml measured at 96 hrs post fertilization by inverted microscopic analysis; assay type: organism-based; settings: in vivo
# [24] = species on record: Danio rerio; assay: Toxicity against zebrafish embryo assessed as effect on eyes at 2.5 ug/ml measured at 96 hrs post fertilization by inverted microscopic analysis; assay type: organism-based; settings: in vivo
# [25] = species on record: Danio rerio; assay: Toxicity against zebrafish embryo assessed as effect on otoliths at 25 ug/ml measured at 96 hrs post fertilization by inverted microscopic analysis; assay type: organism-based; settings: in vivo
# [26] = species on record: Danio rerio; assay: Toxicity against zebrafish embryo assessed as effect on otoliths at 5 ug/ml measured at 96 hrs post fertilization by inverted microscopic analysis; assay type: organism-based; settings: in vivo
# [27] = system: Danio rerio; assay: Toxicity against zebrafish embryo assessed as pericardial edema at 25 ug/ml measured at 96 hrs post fertilization by inverted microscopic analysis; assay type: organism-based; settings: in vivo
# [28] = system: Danio rerio; assay: Toxicity against zebrafish embryo assessed as pericardial edema at 2.5 ug/ml measured at 96 hrs post fertilization by inverted microscopic analysis; assay type: organism-based; settings: in vivo
# [29] = system: Danio rerio; assay: Toxicity against zebrafish embryo assessed as yolk edema at 50 ug/ml measured at 96 hrs post fertilization by inverted microscopic analysis; assay type: organism-based; settings: in vivo
# [30] = system: Danio rerio; assay: Toxicity against zebrafish embryo assessed as yolk edema at 25 ug/ml measured at 96 hrs post fertilization by inverted microscopic analysis; assay type: organism-based; settings: in vivo
# [31] = system: Danio rerio; assay: Toxicity against zebrafish embryo assessed as yolk edema at 10 ug/ml measured at 96 hrs post fertilization by inverted microscopic analysis; assay type: organism-based; settings: in vivo
# [32] = system: Danio rerio; assay: Toxicity against zebrafish embryo assessed as yolk edema at 5 ug/ml measured at 96 hrs post fertilization by inverted microscopic analysis; assay type: organism-based; settings: in vivo
# [33] = system: Danio rerio; assay: Toxicity against zebrafish embryo assessed as yolk edema at 2.5 ug/ml measured at 96 hrs post fertilization by inverted microscopic analysis; assay type: organism-based; settings: in vivo
# [34] = species on record: Danio rerio; assay: Toxicity against zebrafish embryo assessed as effect on heart beat at 25 ug/ml measured at 96 hrs post fertilization by inverted microscopic analysis; assay type: organism-based; settings: in vivo
# [35] = species on record: Danio rerio; assay: Toxicity against zebrafish embryo assessed as effect on heart beat at 10 ug/ml measured at 96 hrs post fertilization by inverted microscopic analysis; assay type: organism-based; settings: in vivo
# [36] = species on record: Danio rerio; assay: Toxicity against zebrafish embryo assessed as effect on blood circulation at 25 ug/ml measured at 96 hrs post fertilization by inverted microscopic analysis; assay type: organism-based; settings: in vivo
# [37] = species on record: Danio rerio; assay: Toxicity against zebrafish embryo assessed as effect on blood circulation at 2.5 ug/ml measured at 96 hrs post fertilization by inverted microscopic analysis; assay type: organism-based; settings: in vivo
# [38] = species on record: Danio rerio; assay: Toxicity against zebrafish embryo assessed as unhatched embryos at 50 ug/ml measured at 96 hrs post fertilization by inverted microscopic analysis; assay type: organism-based; settings: in vivo
# [39] = species on record: Danio rerio; assay: Toxicity against zebrafish embryo assessed as unhatched embryos at 25 ug/ml measured at 96 hrs post fertilization by inverted microscopic analysis; assay type: organism-based; settings: in vivo
# [40] = species on record: Danio rerio; assay: Toxicity against zebrafish embryo assessed as head malformation at 25 ug/ml measured at 96 hrs post fertilization by inverted microscopic analysis; assay type: organism-based; settings: in vivo
# [41] = species on record: Danio rerio; assay: Toxicity against zebrafish embryo assessed as head malformation at 10 ug/ml measured at 96 hrs post fertilization by inverted microscopic analysis; assay type: organism-based; settings: in vivo
# [42] = species on record: Danio rerio; assay: Toxicity against zebrafish embryo assessed as skeletal deformities at 25 ug/ml measured at 96 hrs post fertilization by inverted microscopic analysis; assay type: organism-based; settings: in vivo
# [43] = system: Candida albicans; assay: Antifungal activity against Candida albicans CA5 assessed as fungal growth at sub-MIC measured over 12 hrs by time-kill dependence-based spectrophotometric analysis relative to DMSO control; assay type: functional
# [44] = Hemolytic effect in sheep RBC assessed as release of hemoglobin at MIC after 1 hr; assay type: ADME, cell-based, Ovis aries, Erythrocyte; settings: sheep red blood cells, read-out: Activity
# [45] = Hemolytic effect in sheep RBC assessed as release of hemoglobin at cytotoxic IC50 after 1 hr; assay type: cell-based, Ovis aries, Erythrocyte; settings: sheep red blood cells, read-out: Activity
smiles,measurement,setting,value
Cl.Cl.N=C(N)N/N=C/c1ccc(-c2ccc(/C=N/NC(=N)N)s2)cc1,MIC,[1],0.5 mg/L
same,IC50,[2],10 mg/L
same,Selectivity Index,[3],20
same,Activity,[4],Active
same,Activity,[5],7%
same,Activity,[6],Active
same,Activity,[7],Active
same,MBEC,[8],250 µg/mL
same,MBEC,[9],500 µg/mL
same,"mortality at 96 h, 5 ug/ml",[10],0%
same,Activity,[11],0%
same,Activity,[12],0%
same,Activity,[13],0%
same,Activity,[14],0%
same,Activity,[15],0%
same,Activity,[16],0%
same,LC50 at 96 h,[17],> 50 mg/L
same,Activity,[18],inactive
same,Activity,[19],inactive
same,Activity,[20],96.67%
same,Activity,[21],100%
same,Activity,[22],0%
same,Activity,[23],0%
same,Activity,[24],0%
same,Activity,[25],0%
same,Activity,[26],0%
same,Activity,[27],0%
same,Activity,[28],0%
same,Activity,[29],0%
same,Activity,[30],0%
same,Activity,[31],0%
same,Activity,[32],0%
same,Activity,[33],0%
same,Activity,[34],0%
same,Activity,[35],0%
same,Activity,[36],0%
same,Activity,[37],0%
same,Activity,[38],0%
same,Activity,[39],0%
same,Activity,[40],0%
same,Activity,[41],0%
same,Activity,[42],0%
Cl.N=C(N)N/N=C/c1ccc(-c2ccc(Br)cc2)s1,MIC,[1],1.56 mg/L
same,IC50,[2],2 mg/L
same,Activity,[43],50%
same,hemolysis at 1 h,[44],≤ 10%
same,hemolysis at 1 h,[45],≤ 10%
same,Activity,[5],7%
same,MBEC,[8],125 µg/mL
same,MBEC,[9],125 µg/mL
same,"mortality at 96 h, 5 ug/ml",[10],10%
same,Activity,[11],0%
same,Activity,[12],23.33%
same,Activity,[13],100%
same,Activity,[15],0%
same,Activity,[16],0%
same,LC50 at 96 h,[17],14.1 mg/L
same,Activity,[20],0%
same,Activity,[21],46.67%
same,Activity,[22],0%
same,Activity,[23],0%
same,Activity,[24],0%
same,Activity,[25],0%
same,Activity,[26],0%
same,Activity,[27],100%
same,Activity,[28],0%
same,Activity,[30],0%
same,Activity,[31],0%
same,Activity,[32],0%
same,Activity,[33],0%
same,Activity,[34],0%
same,Activity,[35],0%
same,Activity,[36],0%
same,Activity,[37],0%
same,Activity,[39],0%
same,Activity,[40],0%
same,Activity,[41],0%
same,Activity,[42],0%
Cc1ccc(-c2ccc(/C=N/NC(=N)N)s2)cc1.Cl,MIC,[1],0.5 mg/L
same,IC50,[2],2.5 mg/L
same,Selectivity Index,[3],5
same,Activity,[43],50%
same,Activity,[4],Active
same,hemolysis at 1 h,[44],≤ 10%
same,hemolysis at 1 h,[45],≤ 10%
same,Activity,[5],7%
same,Activity,[6],Active
same,Activity,[7],Active
same,MBEC,[8],125 µg/mL
same,MBEC,[9],125 µg/mL
same,"mortality at 96 h, 5 ug/ml",[10],20%
same,Activity,[11],0%
same,Activity,[12],50%
same,Activity,[16],0%
same,LC50 at 96 h,[17],8.2 mg/L
same,Activity,[18],inactive
same,Activity,[19],Active
same,Activity,[20],0%
same,Activity,[21],0%
same,Activity,[24],0%
same,Activity,[26],62.5%
same,Activity,[28],7.41%
same,Activity,[31],0%
same,Activity,[32],0%
same,Activity,[33],0%
same,Activity,[35],0%
same,Activity,[37],0%
same,Activity,[41],100%
